# According to US20070148193A1, “Lutein concentrate” (AQUANOVA GERMAN SOLUBILISATE TECHNOLOGIES (AGT) GM, priority 2003, published 2007):
# Experiments:
# [1] = cited from earlier work
# [2] = system: LDL (low-density lipoprotein); assay: oxidation resistance of LDL (study by Milde and Elstner); assay type: biochemical; conditions: lutein as a powder or dissolved in ethanol vs. solubilizate
# Excerpt: A study by J. Milde and E. F. Elstner (Technical University of Munich) has shown that lutein has no effect on the oxidation resistance of LDL (low-density lipoprotein) as a powder or dissolved in ethanol. […] The micellated lutein from the solubilizate is enriched in the LDL by a factor of 9 more (10 mole lutein/mole LDL).
Compound,solubility in water (background statement) [1],effect on the oxidation resistance of LDL [2]
CC1=C[C@H](O)CC(C)(C)[C@H]1/C=C/C(C)=C/C=C/C(C)=C/C=C/C=C(C)/C=C/C=C(C)/C=C/C1=C(C)C[C@@H](O)CC1(C)C [lutein],practically insoluble in water,no effect
lutein ester,practically insoluble in water,–
